Data as given in PubChem BioAssay AID1919014 (Molecular Pharmacology Branch, DTP, NCI, 2023).

Test system: NCI-H1341 complex spheroids, percent test/control
Assay: Anticancer human tumor NCI-H1341 cell line growth inhibition [AhR];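 also: spheroids exposed to agents for seven days before readout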
Conditions: for IC50: curve of first compound; for viability, T/C: stronger effect = lower value; active = viability on the fitted dose curve at most 10% of control; inactive = the rest
Procedure, shortened: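 Agents were dosed in half-log steps down from roughly clinical Cmax, or from 10 microM where Cmax was unknown, alone and with AhR antagonists. Read-out: percent test/control growth of tumor spheroids containing HUVEC and MSC stromal cells.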

[1] = second compound 0.1 µM, first compound 0.0316 µM
[2] = second compound 0.1 µM, first compound 0.1 µM
[3] = second compound 0.1 µM, first compound 0.316 µM
[4] = second compound 0.1 µM, first compound 1 µM
[5] = second compound 0.316 µM, first compound 0.0316 µM
[6] = second compound 0.316 µM, first compound 0.1 µM
[7] = second compound 0.316 µM, first compound 0.316 µM
[8] = second compound 0.316 µM, first compound 1 µM
[9] = second compound 1 µM, first compound 0.0316 µM
[10] = second compound 1 µM, first compound 0.1 µM
[11] = second compound 1 µM, first compound 0.316 µM
[12] = second compound 1 µM, first compound 1 µM
[13] = second compound 3.16 µM, first compound 0.0316 µM
[14] = second compound 3.16 µM, first compound 0.1 µM
[15] = second compound 3.16 µM, first compound 0.316 µM
[16] = second compound 3.16 µM, first compound 1 µM
[17] = second compound 10 µM, first compound 0.0316 µM
[18] = second compound 10 µM, first compound 0.1 µM
[19] = second compound 10 µM, first compound 0.316 µM
[20] = second compound 10 µM, first compound 1 µM
[21] = second compound 0.1 µM, first compound 0.00949 µM
[22] = second compound 0.1 µM, first compound 0.03 µM
[23] = second compound 0.1 µM, first compound 0.0949 µM
[24] = second compound 0.1 µM, first compound 0.3 µM
[25] = second compound 0.1 µM, first compound 0.949 µM
[26] = second compound 0.1 µM, first compound 3 µM
[27] = second compound 0.316 µM, first compound 0.00949 µM
[28] = second compound 0.316 µM, first compound 0.03 µM
[29] = second compound 0.316 µM, first compound 0.0949 µM
[30] = second compound 0.316 µM, first compound 0.3 µM
[31] = second compound 0.316 µM, first compound 0.949 µM
[32] = second compound 0.316 µM, first compound 3 µM
[33] = second compound 1 µM, first compound 0.00949 µM
[34] = second compound 1 µM, first compound 0.03 µM
[35] = second compound 1 µM, first compound 0.0949 µM
[36] = second compound 1 µM, first compound 0.3 µM
[37] = second compound 1 µM, first compound 0.949 µM
[38] = second compound 1 µM, first compound 3 µM
[39] = second compound 3.16 µM, first compound 0.00949 µM
[40] = second compound 3.16 µM, first compound 0.03 µM
[41] = second compound 3.16 µM, first compound 0.0949 µM
[42] = second compound 3.16 µM, first compound 0.3 µM
[43] = second compound 3.16 µM, first compound 0.949 µM
[44] = second compound 3.16 µM, first compound 3 µM
[45] = second compound 10 µM, first compound 0.00949 µM
[46] = second compound 10 µM, first compound 0.03 µM
[47] = second compound 10 µM, first compound 0.0949 µM
[48] = second compound 10 µM, first compound 0.3 µM
[49] = second compound 10 µM, first compound 0.949 µM
[50] = second compound 10 µM, first compound 3 µM

CC1COCCN1c1cc(-c2ccnn2C)c2ccnc(-c3ccn[nH]3)c2n1 (stereo not given) + Cc1ccccc1N=Nc1ccc(NC(=O)c2ccnn2C)c(C)c1
0.113 µM: IC50 (second compound 1 µM)
0.0675 µM: IC50 (second compound 3.16 µM)
0.00913 µM: IC50 (second compound 10 µM)
inactive: viability, T/C (second compound 0.1 µM, first compound 0.00316 µM) 98.2% | viability, T/C (second compound 0.1 µM, first compound 0.01 µM) 99.1% | viability, T/C [1] 74.2% | viability, T/C [2] 48.5% | viability, T/C [3] 38.3% | viability, T/C [4] 26.2% | viability, T/C (second compound 0.316 µM, first compound 0.00316 µM) 104% | viability, T/C (second compound 0.316 µM, first compound 0.01 µM) 102% | viability, T/C [5] 65.6% | viability, T/C [6] 39.3% | viability, T/C [7] 34.8% | viability, T/C [8] 29% | viability, T/C (second compound 1 µM, first compound 0.00316 µM) 82.6% | viability, T/C (second compound 1 µM, first compound 0.01 µM) 92% | viability, T/C [9] 70.8% | viability, T/C [10] 52.6% | viability, T/C [11] 34.3% | viability, T/C [12] 25.9% | viability, T/C (second compound 3.16 µM, first compound 0.00316 µM) 84% | viability, T/C (second compound 3.16 µM, first compound 0.01 µM) 72.7% | viability, T/C [13] 55.1% | viability, T/C [14] 44.4% | viability, T/C [15] 40.8% | viability, T/C [16] 27.6% | viability, T/C (second compound 10 µM, first compound 0.00316 µM) 53.8% | viability, T/C (second compound 10 µM, first compound 0.01 µM) 51% | viability, T/C [17] 44.3% | viability, T/C [18] 37.1% | viability, T/C [19] 30.7% | viability, T/C [20] 25.6%
0.0606 µM: IC50 (second compound 0.316 µM)
0.0976 µM: IC50 (second compound 0.1 µM)

CC1COCCN1c1cc(C2(S(C)(=N)=O)CC2)nc(-c2ccnc3[nH]ccc23)n1 (stereo not given) + Cc1ccccc1N=Nc1ccc(NC(=O)c2ccnn2C)c(C)c1
1.6 µM: IC50 (second compound 0.1 µM)
inactive: viability, T/C [1] 92.7% | viability, T/C [2] 92.3% | viability, T/C [3] 94.4% | viability, T/C [4] 57.6% | viability, T/C (second compound 0.1 µM, first compound 3.16 µM) 45.2% | viability, T/C (second compound 0.1 µM, first compound 10 µM) 30.3% | viability, T/C [5] 77.1% | viability, T/C [6] 108% | viability, T/C [7] 89% | viability, T/C [8] 81.2% | viability, T/C (second compound 0.316 µM, first compound 3.16 µM) 52.2% | viability, T/C (second compound 0.316 µM, first compound 10 µM) 31.1% | viability, T/C [9] 88.2% | viability, T/C [10] 114% | viability, T/C [11] 83.2% | viability, T/C [12] 84.3% | viability, T/C (second compound 1 µM, first compound 3.16 µM) 48.6% | viability, T/C (second compound 1 µM, first compound 10 µM) 29.4% | viability, T/C [13] 77.9% | viability, T/C [14] 90.2% | viability, T/C [15] 69.2% | viability, T/C [16] 63.4% | viability, T/C (second compound 3.16 µM, first compound 3.16 µM) 43.6% | viability, T/C (second compound 3.16 µM, first compound 10 µM) 26% | viability, T/C [17] 55.9% | viability, T/C [18] 57.5% | viability, T/C [19] 55.5% | viability, T/C [20] 47.6% | viability, T/C (second compound 10 µM, first compound 3.16 µM) 34.5% | viability, T/C (second compound 10 µM, first compound 10 µM) 25.4%
3.53 µM: IC50 (second compound 0.316 µM)
3.15 µM: IC50 (second compound 1 µM)
0.721 µM: IC50 (second compound 10 µM)
2.11 µM: IC50 (second compound 3.16 µM)

CCN(c1cc(-c2ccc(CN3CCOCC3)cc2)cc(C(=O)NCc2c(C)cc(C)[nH]c2=O)c1C)C1CCOCC1 + Cc1ccccc1N=Nc1ccc(NC(=O)c2ccnn2C)c(C)c1
> 3 µM: IC50 (second compound 0.1 µM) | IC50 (second compound 0.316 µM) | IC50 (second compound 1 µM) | IC50 (second compound 3.16 µM) | IC50 (second compound 10 µM)
inactive: viability, T/C [21] 95.8% | viability, T/C [22] 85.1% | viability, T/C [23] 75.5% | viability, T/C [24] 104% | viability, T/C [25] 90.9% | viability, T/C [26] 107% | viability, T/C [27] 90.2% | viability, T/C [28] 103% | viability, T/C [29] 89.6% | viability, T/C [30] 87.1% | viability, T/C [31] 104% | viability, T/C [32] 73.1% | viability, T/C [33] 91.6% | viability, T/C [34] 102% | viability, T/C [35] 94.7% | viability, T/C [36] 90.6% | viability, T/C [37] 79.8% | viability, T/C [38] 100% | viability, T/C [39] 75.2% | viability, T/C [40] 75.1% | viability, T/C [41] 70.6% | viability, T/C [42] 71% | viability, T/C [43] 73.3% | viability, T/C [44] 60.6% | viability, T/C [45] 54.9% | viability, T/C [46] 45.6% | viability, T/C [47] 54.6% | viability, T/C [48] 52.2% | viability, T/C [49] 49.8% | viability, T/C [50] 66.5%

Nc1ncn(C2CC(O)C(CO)S2)c(=O)n1 (stereo not given) + Cc1ccccc1N=Nc1ccc(NC(=O)c2ccnn2C)c(C)c1
inactive: viability, T/C (second compound 0.1 µM, first compound 0.000949 µM) 71.8% | viability, T/C (second compound 0.1 µM, first compound 0.003 µM) 84.3% | viability, T/C [21] 83.3% | viability, T/C [22] 65% | viability, T/C [23] 61.3% | viability, T/C [24] 40% | viability, T/C (second compound 0.316 µM, first compound 0.000949 µM) 78.8% | viability, T/C (second compound 0.316 µM, first compound 0.003 µM) 95% | viability, T/C [27] 93.2% | viability, T/C [28] 87.7% | viability, T/C [29] 78% | viability, T/C [30] 48.1% | viability, T/C (second compound 1 µM, first compound 0.000949 µM) 78.2% | viability, T/C (second compound 1 µM, first compound 0.003 µM) 85.8% | viability, T/C [33] 84.9% | viability, T/C [34] 81.3% | viability, T/C [35] 74.1% | viability, T/C [36] 46.8% | viability, T/C (second compound 3.16 µM, first compound 0.000949 µM) 88% | viability, T/C (second compound 3.16 µM, first compound 0.003 µM) 62.4% | viability, T/C [39] 66% | viability, T/C [40] 69.6% | viability, T/C [41] 62.6% | viability, T/C [42] 43.8% | viability, T/C (second compound 10 µM, first compound 0.000949 µM) 51.4% | viability, T/C (second compound 10 µM, first compound 0.003 µM) 54.6% | viability, T/C [45] 53% | viability, T/C [46] 45.8% | viability, T/C [47] 45.2% | viability, T/C [48] 34.9%
0.0174 µM: IC50 (second compound 10 µM)
0.263 µM: IC50 (second compound 1 µM)
0.236 µM: IC50 (second compound 3.16 µM)
0.165 µM: IC50 (second compound 0.1 µM)
0.281 µM: IC50 (second compound 0.316 µM)

O=C(C=Cn1cnc(-c2cc(C(F)(F)F)cc(C(F)(F)F)c2)n1)NNc1cnccn1 + Cc1ccccc1N=Nc1ccc(NC(=O)c2ccnn2C)c(C)c1
inactive: viability, T/C [21] 85.4% | viability, T/C [22] 63.4% | viability, T/C [23] 35.2% | viability, T/C [24] 12.9% | viability, T/C [27] 69.5% | viability, T/C [28] 59% | viability, T/C [29] 38.3% | viability, T/C [30] 15.2% | viability, T/C [33] 67.7% | viability, T/C [34] 66.7% | viability, T/C [35] 34.5% | viability, T/C [36] 15.4% | viability, T/C [39] 47.9% | viability, T/C [40] 40.7% | viability, T/C [41] 30.6% | viability, T/C [42] 13.2% | viability, T/C [45] 40.7% | viability, T/C [46] 35% | viability, T/C [47] 24.2% | viability, T/C [48] 15.6% | viability, T/C [49] 10.8%
0.0536 µM: IC50 (second compound 1 µM)
active: viability, T/C [25] 8.66% | viability, T/C [26] 7.84% | viability, T/C [31] 9.67% | viability, T/C [32] 6.9% | viability, T/C [37] 8.51% | viability, T/C [38] 8.16% | viability, T/C [43] 11.4% | viability, T/C [44] 6.99% | viability, T/C [50] 6.32%
< 0.00949 µM: IC50 (second compound 3.16 µM) | IC50 (second compound 10 µM)
0.0513 µM: IC50 (second compound 0.1 µM)
0.0497 µM: IC50 (second compound 0.316 µM)
